In patent publication US6121297A, “Cyanoguanidines as cell proliferation inhibitors” (Leo Pharmaceutical Products Ltd. A/S, priority 1997, dated 2000):
pIC50: −log10 of the molar value.

Experiments:
Assay type in all cases: cell-based
[1] = system: human small cell lung carcinoma (NYH); assay: Inhibition of tumour cell proliferation in vitro, NYH ([3H]thymidine incorporation); conditions: human NYH cells, 24 hours, DNA synthesis by [3H]thymidine incorporation
Procedure: (§1) The inhibition of tumour cell proliferation was studied using different types of human cancer cell lines. The cell lines under investigation were small cell lung carcinoma (NYH), non small cell lung carcinoma (NCI-H460), and breast cancer (MCF-7) using the following general procedure:
(§2) The cells were cultured in vitro for 24 hours in the presence of the compound under investigation. DNA synthesis was measured by incorporation of [3H]thymidine, and the median inhibitory concentrations (IC50) of the compounds were calculated.

[2] = system: human non small cell lung cancer (NCI-H460); assay: Inhibition of tumour cell proliferation in vitro, NCI-H460 ([3H]thymidine incorporation); conditions: human NCI-H460 cells, 24 hours, DNA synthesis by [3H]thymidine incorporation
Procedure: as §1, §2

[3] = system: human breast cancer (MCF-7); assay: Inhibition of tumour cell proliferation in vitro, MCF-7 ([3H]thymidine incorporation); conditions: MCF7, human MCF-7 cells, 24 hours, DNA synthesis by [3H]thymidine incorporation
Procedure: as §1, §2

Structure (SMILES) | pIC50 [1] | pIC50 [2] | pIC50 [3]
N#CNC(=Nc1ccncc1)NCCCCCCCCCCOc1ccccc1 [Example No. 3, N-Cyano-N'-(10-phenoxydecyl)-N"-4pyridylguanidine] | 8.23 | 7.31 | 7.89
N#CN=C(NCCCCOc1ccccc1)Nc1ccncc1 [Prior art A, NCyano-N(4-phenoxybutyl)-N4-pyridylguanidine, reference compound] | 6.42 | < 6.00 | 6.04
N#CNC(=Nc1ccncc1)NCCCCCCCCCOc1ccccc1 [Example No. 4, N-Cyano-N'-(9-phenoxynonyl)-N"-4-pyridylguanidine] | 8.28 | 7.37 | 7.74
N#CN=C(NCCCCCOc1ccccc1)Nc1ccncc1 [Prior art B, NCyano-N(5-phenoxypentyl)-N4-pyridylguanidine, reference compound] | 7.35 | 7.17 | 6.60
N#CNC(=Nc1ccncc1)NCCCCCCCCCCCOc1ccccc1 [Example No. 1, N-Cyano-N'-(11-phenoxyundecyl)-N"-4-pyridylguanidine] | 8.35 |  | 7.68
